Results as given in paper PMC2216842 (The Journal of General Physiology, 1994).
Read-outs that look alike come from different tables or passages of the source.

How the values were obtained:
[1] = system: BTX-modified Na+ channels in GH3 cells; format: cell-based, rat; settings: for enhancement of the inactivation of BTX-modified Na+ channels: benzocaine derivatives
[2] = system: BTX-modified Na+ channels in GH3 cells; experiment: Whole-cell voltage clamp, voltage-ramp protocol; format: cell-based, rat; settings: for effect of external Na+ ions on binding: 0 vs 130 mM external Na+; for voltage dependence of block / IC50: voltage ramp; for voltage dependence of block: quasi steady state; for change of binding after CT treatment: 0.5 mM CT 5 min; for IC50: no external Na+
[3] = system: unmodified Na+ channels in GH3 cells; experiment: Whole-cell voltage clamp, tonic and use-dependent block of normal Na+ currents; format: cell-based, rat; settings: 1 mM; for tonic block of normal Na+ currents: +30 mV test pulse, prepulse -130 mV; for use-dependent block of normal Na+ currents: repetitive +30 mV pulses, 25 ms at 5 Hz
[4] = Solubility in test solution; settings: external solution, from 500 mM DMSO stock

CCOC(=O)c1ccc(N(C)C)cc1 [N-dimethyl benzocaine, ethyl p-dimethylamino-benzoate]
enhancement of the inactivation of BTX-modified Na+ channels [1]: failed to enhance the inactivation | effect of external Na+ ions on binding [2]: no effect | voltage dependence of block [2]: enhanced by depolarization | left shift in steady-state inactivation [3]: ~ 10 mV | tonic block of normal Na+ currents [3]: produces a tonic block | use-dependent block of normal Na+ currents [3]: elicits additional use-dependent block | solubility [4]: could not reliably dissolve N-dimethyl benzocaine at 3 mM even after heating

CCOC(=O)c1ccc(N)cc1 [benzocaine, Benzocaine]
IC50 ([1]; read-out: concentration that inhibits 50% of BTX-modified Na+ currents (IC50), at -70 mV, GH3 cells): 200 µM | effect of external Na+ ions on binding [2]: do not reduce benzocaine binding | change of binding after CT treatment ([2]; measured from -75 mV to +50 mV, 1 and 3 mM): greatly reduced | shift of V0.5 toward the depolarizing direction ([2]; 1 mM benzocaine on BTX-modified channels, 130 mM external Na+): about 20 mV | IC50 ([2]; at +50 mV): ~1200 µM | IC50 ([2]; at -50 mV): 300 µM | voltage dependence of block [2]: greater at the resting membrane potential (-50 to -90 mV) than at positive potentials (0 to +50 mV) | left shift in steady-state inactivation [3]: about 20 mV | tonic block of normal Na+ currents [3]: produces a tonic block | use-dependent block of normal Na+ currents [3]: fails to elicit additional use-dependent block | solubility [4]: poor solubility of benzocaine at concentrations higher than 3 mM

COC(=O)[C@H]1[C@@H](OC(=O)c2ccccc2)C[C@@H]2CC[C@H]1N2C [cocaine, (-)-cocaine]
change of binding after CT treatment ([2]; from 0 to +50 mV, 0.1 or 0.3 mM): small reduction | change of binding after CT treatment ([2]; from -50 mV to -30 mV, 0.1 or 0.3 mM): slightly enhanced | voltage dependence of block [2]: significantly stronger at +50 mV than at -50 mV

CCOC(=O)c1cccc(O)c1 [ethyl 3-hydroxy benzoate]
enhancement of the inactivation of BTX-modified Na+ channels [1]: acted more or less as benzocaine

CCOC(=O)c1ccc(O)cc1 [ethyl 4-hydroxy benzoate]
enhancement of the inactivation of BTX-modified Na+ channels [1]: acted more or less as benzocaine

COC(=O)c1ccc(N)cc1 [methyl 4-amino benzoate]
enhancement of the inactivation of BTX-modified Na+ channels [1]: acted more or less as benzocaine

CCOC(=O)c1cccc(N)c1 [tricaine]
enhancement of the inactivation of BTX-modified Na+ channels [1]: acted more or less as benzocaine

batrachotoxin [BTX]
activation threshold, more negative than that of normal Na+ currents ([2]; BTX-modified channels, threshold near -90 mV): ~ 50 mV
